Measured values taken from US20240181022A1, “AMURINS LYSINS, AND LYSIN-ANTIMICROBIAL PEPTIDE (AMP) CONSTRUCTS ACTIVE AGAINST GRAM-NEGATIVE BACTERIA” (priority 2021, published 2024).
Like-named read-outs stand apart in the source and are kept apart here. Where no end group is shown, it is not given here.

How the values were obtained:
[1] = tested on: M. fortuitum; assay: MIC against M. fortuitum; assay type: cell-based, Mycobacterium fortuitum; conditions: M. fortuitum (ATCC 6841); CAAT media
[2] = tested on: M. avium; assay: MIC against M. avium; assay type: cell-based, Mycobacterium avium; conditions: M. avium (ATCC 700898); CAAT media
[3] = tested on: M. kansasii; assay: MIC against M. kansasii; assay type: cell-based, Mycobacterium kansasii; conditions: M. kansasi (ATCC 12478); CAAT media
[4] = tested on: M. abscessus; assay: MIC against MDR M. abscessus isolates; assay type: cell-based, Mycobacterium abscessus; conditions: 7 days; for MIC: AST media (CAAT)
[5] = tested on: A. dolens; assay: MIC by broth microdilution against A. dolens; assay type: cell-based, Achromobacter dolens; conditions: A. dolens isolates
Method: (§1) MIC values were determined using a modification of the standard broth microdilution reference method defined by the Clinical and Laboratory Standards Institute (CLSI), CLSL. 2015. Methods for Dilution Antimicrobial Susceptibility Tests for Bacteria That Grow Aerobically; Approved Standard-10th Edition. Clinical and Laboratory Standards Institute, Wayne, PA. The modification was based on the replacement of Mueller Hinton Broth with either CAA media (with and without NaCl) or CAA supplemented with 2.5% human serum. MIC is the minimum concentration of peptide sufficient to suppress at least 80% of the bacterial growth compared to control.
(§2) Based on these nine most prevalent strains, direct lytic agents, including GN370, AM1, AM2, and AM3, were evaluated against various isolates from each of the 9 strains. MICs and MBECs (Example 3) were determined, and a sputum inhibition test was conducted, as described below in Example 5.
(§3) The MICs for were determined as described below using the broth microdilution method for meropenem, GN370, AM1, AM2, and AM3. The results are shown below in Tables 8-12.

[6] = tested on: B. gladioli; assay: MIC by broth microdilution against B. gladioli; assay type: cell-based, Burkholderia gladioli; conditions: B. gladioli isolates
Method: as §1, §2, §3

[7] = tested on: P. aeruginosa; assay: Time-kill assay in cystic fibrosis patient sputum, P. aeruginosa; assay type: cell-based, Pseudomonas aeruginosa
Text: (§4) Sputum from 5 cystic fibrosis patients was pooled. The resulting mixture was not filtered, as it was very dense and not amenable to sterilization by filtration. Sputum is known to be a complex mixture of DNA, carbohydrates, and lipids ([…], 2016). As used herein, the term “sputum” refers to the mucus present in the respiratory tract of an animal, such as a human. Sputum may increase in thickness due to the irritation or infection, including bacterial infection, and in some instances, may be expelled by the animal while coughing. In certain instances, cystic fibrosis may be characterized by the presence of a thick, sticky mucus or sputum present in the lungs of cystic fibrosis patients. The activity of GN370, AM1, AM2, AM3, and meropenem was determined in the sputum using a time-kill assay format as disclosed in Zhang et al., Antimicrobial peptide therapeutics for cystic fibrosis, Antimicrobial Agents Chemother. 2005; 49(7):2921-2927. […] Untreated controls were included in addition to pretreatment plating (t=0) for a baseline CFU determination. Activity was also determined in the absence of sputum for comparison to activity observed in the presence of sputum.

[8] = tested on: S. maltophilia; assay: Time-kill assay in cystic fibrosis patient sputum, S. maltophilia; assay type: cell-based, Stenotrophomonas maltophilia
Text: as §4

[9] = tested on: P. aeruginosa; assay: Serial passage resistance development study, P. aeruginosa; assay type: cell-based, Pseudomonas aeruginosa; conditions: P. aeruginosa strain CFS 1292, Day 28
[10] = tested on: S. maltophilia; assay: Serial passage resistance development study, S. maltophilia; assay type: cell-based, Stenotrophomonas maltophilia; conditions: S. maltophilia, day 28, triplicate
[11] = tested on: A. ruhlandii; assay type: cell-based, Achromobacter ruhlandii
Method: (§5) The MBEC (after 2-hour treatments) was determined as described in Jones and Wozniak, PsI Produced by Mucoid Pseudomonas aeruginosa Contributes to the Establishment of Biofilms and Immune Evasion, Am. Soc. Microbiol. 2017, 8(3):e00864-17. Meropenem and tobramycin were included as controls and were both poorly active, with MBEC90 values of >256 μg/mL (data not shown).

[12] = tested on: A. dolens; assay type: cell-based, Achromobacter dolens
Method: as §5

[13] = tested on: B. gladioli; assay type: cell-based, Burkholderia gladioli; conditions: B. gladioli (15); 2-hour treatment
Method: as §5

[14] = tested on: P. aeruginosa
[15] = tested on: P. aeruginosa; remark: listed apart in the source
[16] = α-hemolytic P. aeruginosa isolates (n = 13)

MRLKMARRRYRLPRRRSRRLFSRTALRMHPRNRLRRIMRGGIRF [AM1]
MIC [1]: 2 µg/mL
MIC [2]: 1 Tg/mL
MIC [3]: 2 µg/mL
activity (MIC) against M. abscessus ([4]; 5 clinical MDR strains and 1 ATCC strain, CAAT): highly active
MIC ([4]; M. abscessus strain BK51402): 1 µg/mL
MIC ([4]; M. abscessus strain BK51403 (ATCC 19977)): 2 µg/mL
MIC ([4]; M. abscessus strain BK51408): 4 µg/mL
MIC ([4]; M. abscessus strain BK55096): 1 µg/mL
MIC ([4]; M. abscessus strain BK55691): 1 µg/mL
MIC ([4]; M. abscessus strain BK58156): 2 µg/mL
MIC50 [5]: 1 µg/mL
MIC90 [5]: 2 µg/mL
MIC Range ([5]; in µg/mL): 0.06-4
MIC50 [6]: 8 µg/mL
MIC90 [6]: 64 µg/mL
MIC Range ([6]; in µg/mL): 0.03-128
effect of sputum on antibacterial activity ([7]; 10% CF sputum vs no sputum): not inhibited
Log10 CFU/mL of sputum ([7]; absence of sputum, 1 hr): 2.3 Log10 CFU/mL of sputum
Log10 CFU/mL of sputum ([7]; absence of sputum, 3 hr): 2.3 Log10 CFU/mL of sputum
Log10 CFU/mL of sputum ([7]; absence of sputum, 24 hr): 2.3 Log10 CFU/mL of sputum
Log10 CFU/mL of sputum ([7]; presence of 10% sputum, 1 hr): 2.3 Log10 CFU/mL of sputum
Log10 CFU/mL of sputum ([7]; presence of 10% sputum, 3 hr): 2.3 Log10 CFU/mL of sputum
Log10 CFU/mL of sputum ([7]; presence of 10% sputum, 24 hr): 2.3 Log10 CFU/mL of sputum
killing by 1 hour, maintained by 24 hours ([7]; time-kill): complete killing
effect of sputum on antibacterial activity ([8]; 10% CF sputum vs no sputum): none of GN370, AM1, AM2, and AM3 was inhibited
Log10 CFU/mL of sputum ([8]; absence of sputum, 1 hr): 2.3 Log10 CFU/mL of sputum
Log10 CFU/mL of sputum ([8]; absence of sputum, 3 hr): 2.3 Log10 CFU/mL of sputum
Log10 CFU/mL of sputum ([8]; absence of sputum, 24 hr): 2.3 Log10 CFU/mL of sputum
Log10 CFU/mL of sputum ([8]; presence of 10% sputum, 1 hr): 2.3 Log10 CFU/mL of sputum
Log10 CFU/mL of sputum ([8]; presence of 10% sputum, 3 hr): 2.3 Log10 CFU/mL of sputum
Log10 CFU/mL of sputum ([8]; presence of 10% sputum, 24 hr): 2.3 Log10 CFU/mL of sputum
killing by 1 hour, maintained at 24 hours ([8]; time-kill): complete killing
change in MIC over serial passage [9]: no significant changes
change in MIC over serial passage [10]: no increase in MIC
MBEC50 [11]: 16 µg/mL
MBEC90 [11]: 16 µg/mL
MBEC Range [11]: 2 to 16 µg/mL
MBEC50 [12]: 2 µg/mL
MBEC90 [12]: 4 µg/mL
MBEC Range [12]: 1 to 8 µg/mL
MBEC50 [13]: 4 µg/mL
MBEC90 [13]: 16 µg/mL
MBEC Range [13]: 0.5 to 32 µg/mL
AM1 MIC50 [14]: 0.25 µg/mL
AM1 MIC90 [14]: 0.5 µg/mL
MIC50 [14]: 0.25 µg/mL
MIC90 [14]: 0.5 µg/mL
MIC Range ([14]; MDR P. aeruginosa isolates (n = 13), in µg/mL): 0.016-0.5
MIC50 ([14]; P. aeruginosa isolates): 0.25 µg/mL
MIC90 ([14]; P. aeruginosa isolates): 0.5 µg/mL
MIC ([14]; P. aeruginosa test organism of the sputum time-kill assay): (MIC = 1)
activity (MIC) against P. aeruginosa isolates ([14]; all tested isolates, Tables 8-12): highly active
AM1 MIC Range ([14]; carbapenem-resistant P. aeruginosa isolates (n = 17)): 0.016-0.5
MIC50 [14, 16]: 0.25 µg/mL
MIC90 [14, 16]: 0.5 µg/mL
MBEC50 [15]: 0.5 µg/mL
MBEC90 [15]: 1 µg/mL
MBEC Range [15]: 0.064 to 2 µg/mL
antibiofilm activity (MBEC) against P. aeruginosa ([15]; 2-hour treatments): highly active
